Source: patent US20080262097A1, “Formulations” (priority 2005, published 2008)
Values after ≈ are worked out from the molar mass of the structure shown.

Assays:
S. aureus ATCC 12600-U = assay: Disc diffusion assay (DDA); type: cell-based, Staphylococcus aureus; settings: zone diameter, 200 μg per disc
Procedure: (§1) The staphylococci and enterococci were cultured and maintained on Mueller-Hinton Medium (agar and broth) at pH 7.2; they were incubated aerobically at 37° C. for 24 hours.
(§2) A sterile paper disc was impregnated with a sample of the test compound and a minimum of 30 minutes allowed for the solvents to evaporate as far as possible. The disc was then placed on an agar plate onto which the test micro-organism had been inoculated. The plate was then incubated under the conditions described above, following which it was examined visually for signs of bacterial growth. If the test compound had antimicrobial activity, a circular zone of no growth would be obtained around the disc. The diameter of this zone of “inhibition” was measured using a ProtoCOL™ automated zone sizer (Synbiosis, Cambridge, UK). In general, a greater diameter and/or area of the zone of inhibition indicates a greater antimicrobial activity in the relevant test compound, although other factors such as test compound mobility through the agar gel may also influence the result.
(§3) The area of the zone of inhibition was calculated from the measured zone diameter (D) using the formula π(D/2)^2.

S. aureus ATCC 12601 = assay: Disc diffusion assay (DDA); type: cell-based, Staphylococcus aureus; settings: zone diameter, 200 μg per disc
Procedure: as §1, §2, §3

S. aureus ATCC 12602 = assay: Disc diffusion assay (DDA); type: cell-based, Staphylococcus aureus; settings: zone diameter, 200 μg per disc
Procedure: as §1, §2, §3

S. aureus ATCC 12604 = assay: Disc diffusion assay (DDA); type: cell-based, Staphylococcus aureus; settings: zone diameter, 200 μg per disc
Procedure: as §1, §2, §3

S. aureus ATCC 12605 = assay: Disc diffusion assay (DDA); type: cell-based, Staphylococcus aureus; settings: zone diameter, 200 μg per disc
Procedure: as §1, §2, §3

S. aureus ATCC 12606 = assay: Disc diffusion assay (DDA); type: cell-based, Staphylococcus aureus; settings: zone diameter, 200 μg per disc
Procedure: as §1, §2, §3

S. aureus ATCC 12607 = assay: Disc diffusion assay (DDA); type: cell-based, Staphylococcus aureus; settings: zone diameter, 200 μg per disc
Procedure: as §1, §2, §3

S. aureus ATCC 25923 = assay: Disc diffusion assay (DDA); type: cell-based, Staphylococcus aureus; settings: zone diameter, 200 μg per disc
Procedure: as §1, §2, §3

S. aureus CPHL EMRSA 17 = assay: Disc diffusion assay (DDA); type: cell-based, Staphylococcus aureus; settings: zone diameter, 200 μg per disc
Procedure: as §1, §2, §3

[1] = system: S. aureus CPHL GISA HO41340156; assay: Disc diffusion assay (DDA); type: cell-based, Staphylococcus aureus; settings: zone diameter, 200 μg per disc
Procedure: as §1, §2, §3

S. aureus CPHL VISA Mu3 = assay: Disc diffusion assay (DDA); type: cell-based, Staphylococcus aureus; settings: zone diameter, 200 μg per disc
Procedure: as §1, §2, §3

S. aureus CPHL VISA Mu50 = assay: Disc diffusion assay (DDA); type: cell-based, Staphylococcus aureus; settings: zone diameter, 200 μg per disc
Procedure: as §1, §2, §3

S. aureus CPHL EMRSA 15 = assay: Disc diffusion assay (DDA); type: cell-based, Staphylococcus aureus; settings: zone diameter, 200 μg per disc
Procedure: (§4) Other staphylococcal strains were also tested, as described in Example 5 below. These included certain antibiotic resistant staphylococci, such as the methicillin resistant S. aureus (MRSA) strains EMRSA-15 and EMRSA-16, both available from the Central Public Health Laboratory (CPHL), Colindale, UK. These strains are resistant not only to all beta-lactams but also to a number of other antibiotics in clinical use, making them a serious threat to human health. They are also responsible for the majority (>95%) of hospital-acquired MRSA infections in the UK.
as §1, §2, §3

S. aureus CPHL EMRSA 16 = assay: Disc diffusion assay (DDA); type: cell-based, Staphylococcus aureus; settings: zone diameter, 200 μg per disc
Procedure: as §4, §1, §2, §3

P. acnes PRP-002 = assay: MIC assay; type: cell-based, Propionibacterium acnes; settings: Cutibacterium acnes, PRP002; P. acnes PRP-002 (resistance Tet/MLS)
Procedure: (§5) The Propionibacterium spp organisms were cultured and maintained on Wilkins-Chalgren Anaerobe Medium (agar and broth) at pH 6.0; cultures were incubated anaerobically at 37° C. for 72 hours.
(§6) This is a standard international method for quantitatively assessing the antimicrobial activity of a compound in a liquid medium. The method used a 96-well microtitre plate, capable of holding about 200 μl of liquid per well. […] The culture media were as described above for the relevant test organisms.
(§7) The wells were inoculated with a liquid suspension of freshly grown micro-organism and incubated under the conditions described above. After incubation, the microtitre plate was examined visually (with the aid of a light box) for cell pellets in and/or opaque wells, which would indicate microbial growth. The MIC value was recorded as the lowest concentration of test compound required to inhibit microbial growth, ie, the lowest concentration for which the liquid in the well remained clear.
(§8) The assays were conducted in duplicate and included both negative (culture medium only) and positive (culture medium, diluting solvent and inoculum) controls.

P. acnes PRP-003 = assay: MIC assay; type: cell-based, Propionibacterium acnes; settings: Cutibacterium acnes, PRP003; P. acnes PRP-003 (resistance Tet)
Procedure: as §5, §6, §7, §8

P. acnes PRP-004 = assay: MIC assay; type: cell-based, Propionibacterium acnes; settings: Cutibacterium acnes, PRP004; P. acnes PRP-004 (resistance Tet)
Procedure: as §5, §6, §7, §8

P. acnes PRP-007 = assay: MIC assay; type: cell-based, Propionibacterium acnes; settings: Cutibacterium acnes, PRP007; P. acnes PRP-007 (resistance Clin)
Procedure: as §5, §6, §7, §8

P. acnes PRP-008 = assay: MIC assay; type: cell-based, Propionibacterium acnes; settings: Cutibacterium acnes, PRP008; P. acnes PRP-008 (resistance Clin)
Procedure: as §5, §6, §7, §8

P. acnes PRP-017 = assay: MIC assay; type: cell-based, Propionibacterium acnes; settings: Cutibacterium acnes, PRP017; P. acnes PRP-017 (resistance MLS)
Procedure: as §5, §6, §7, §8

P. acnes PRP-046 = assay: MIC assay; type: cell-based, Propionibacterium acnes; settings: Cutibacterium acnes, PRP046; P. acnes PRP-046 (resistance None)
Procedure: as §5, §6, §7, §8

P. acnes PRP-068 = assay: MIC assay; type: cell-based, Propionibacterium acnes; settings: Cutibacterium acnes, PRP068; P. acnes PRP-068 (resistance Ery)
Procedure: as §5, §6, §7, §8

P. acnes PRP-101 = assay: MIC assay; type: cell-based, Propionibacterium acnes; settings: Cutibacterium acnes, PRP101; P. acnes PRP-101 (resistance Tet/MLS)
Procedure: as §5, §6, §7, §8

P. acnes PRP-102 = assay: MIC assay; type: cell-based, Propionibacterium acnes; settings: Cutibacterium acnes, PRP102; P. acnes PRP-102 (resistance Tet/MLS)
Procedure: as §5, §6, §7, §8

Row | Structure (SMILES) | DDA (S. aureus ATCC 12600-U) [mm] | DDA (S. aureus ATCC 12601) [mm] | DDA (S. aureus ATCC 12602) [mm] | DDA (S. aureus ATCC 12604) [mm] | DDA (S. aureus ATCC 12605) [mm] | DDA (S. aureus ATCC 12606) [mm] | DDA (S. aureus ATCC 12607) [mm] | DDA (S. aureus ATCC 25923) [mm] | DDA (S. aureus CPHL EMRSA 17) [mm] | DDA [1] [mm] | DDA (S. aureus CPHL VISA Mu3) [mm] | DDA (S. aureus CPHL VISA Mu50) [mm] | DDA (S. aureus CPHL EMRSA 15) [mm] | DDA (S. aureus CPHL EMRSA 16) [mm] | MIC (P. acnes PRP-002) [µg/mL] | MIC (P. acnes PRP-003) [µg/mL] | MIC (P. acnes PRP-004) [µg/mL] | MIC (P. acnes PRP-007) [µg/mL] | MIC (P. acnes PRP-008) [µg/mL] | MIC (P. acnes PRP-017) [µg/mL] | other results
1 | CC(C)(C)c1cc(O)ccc1O [TBHQ, t-butyl hydroquinone] | 51.24 | 57.34 | 57.66 | 55.03 | 59.55 | 53.34 | 54.50 | 44.70 | 51.05 | 75.37 | 50.73 | 50.11 | 55.14 | 67.72 | 3.9 (≈ 23.5 µM) | 7.8 (≈ 46.9 µM) | 1.95 (≈ 11.7 µM) | 3.9 (≈ 23.5 µM) | 3.9 (≈ 23.5 µM) | 3.9 (≈ 23.5 µM) | MIC (P. acnes PRP-046): 1.95 µg/mL (≈ 11.7 µM); MIC (P. acnes PRP-068): 3.9 µg/mL (≈ 23.5 µM); MIC (P. acnes PRP-101): 3.9 µg/mL (≈ 23.5 µM); MIC (P. acnes PRP-102): 7.8 µg/mL (≈ 46.9 µM)
2 | O=C(OOC(=O)c1ccccc1)c1ccccc1 [benzoyl peroxide] | 12.20 | 11.68 | 12.73 | 12.52 | 12.20 | 11.68 | 12.31 | 10.86 | 11.74 | 12.16 | 10.90 | 11.64 | 10.17 | 10.80 | 15.6 (≈ 64.4 µM) | 31.2 (≈ 129 µM) | 7.8 (≈ 32.2 µM) | 31.2 (≈ 129 µM) | 31.2 (≈ 129 µM) | 31.2 (≈ 129 µM) | MIC (P. acnes PRP-046): 31.2 µg/mL (≈ 129 µM); MIC (P. acnes PRP-068): 62.5 µg/mL (≈ 258 µM); MIC (P. acnes PRP-101): 15.6 µg/mL (≈ 64.4 µM); MIC (P. acnes PRP-102): 62.5 µg/mL (≈ 258 µM)
